Where two headings read alike, the source gives them in different places.
Tests used:
[1] = system: WSU-DLCL-2, a DLBCL line harboring a Y641F mutation in EZH2; assay: DLBCL cell growth (CellTiter-Glo) with BCL-2 inhibitor after Compound A pre-treatment, WSU-DLCL2; format: cell-based; settings: Homo sapiens, read-out: gIC50
Description: (§1) Plates were incubated for 6 days at 37° C. in 5% CO2. Cells were then lysed with CellTiter-Glo (CTG) (Promega) according to the manufacturer's protocol and chemiluminescent signal was detected with a TECAN Safire2 microplate reader. CTG estimates cell number through detection of cellular ATP levels. In addition, an untreated plate of cells was harvested at the time of compound addition (T0) to quantify the starting number of cells. CTG values were expressed as a percent of the T0 value and plotted against compound concentration.

[2] = system: KARPAS-422, a DLBCL line harboring a Y641N mutation in EZH2; assay: DLBCL cell growth (CellTiter-Glo) with BCL-2 inhibitor after Compound A pre-treatment, KARPAS-422; settings: for IC50: read-out: gIC50
Description: as §1

[3] = system: Farage, a DLBCL line harboring WT EZH2; assay: DLBCL cell growth (CellTiter-Glo) with BCL-2 inhibitor after Compound A pre-treatment, Farage; format: cell-based; settings: for IC50: read-out: gIC50
Description: as §1

[4] = system: SU-DHL-6, a DLBCL line harboring a Y641N mutation in EZH2; assay: DLBCL cell growth (CellTiter-Glo) with BCL-2 inhibitor after Compound A pre-treatment, SU-DHL-6; format: cell-based; settings: for IC50: Homo sapiens, read-out: gIC50
Description: as §1

[5] = WSUDLCL2, 144 h, WSU-DLCL2, BCL2 inhibitor alone (no Compound A), 6 days
[6] = WSUDLCL2, WSU-DLCL2, Compound A 250 nM 72 h pre-treatment then 6 day co-treatment
[7] = KARPAS-422, BCL2 inhibitor alone (no Compound A), 6 days
[8] = KARPAS-422, Compound A 100 nM 72 h pre-treatment then 6 day co-treatment
[9] = KARPAS-422, Compound A 500 nM 72 h pre-treatment then 6 day co-treatment
[10] = 144 h, BCL2 inhibitor alone (no Compound A), 6 days
[11] = Compound A 1 μM 72 h pre-treatment then 6 day co-treatment
[12] = 144 h, SU-DHL-6, BCL2 inhibitor alone (no Compound A), 6 days
[13] = SU-DHL-6, Compound A 250 nM 72 h pre-treatment then 6 day co-treatment

In the case of `CC1(C)CCC(c2ccc(Cl)cc2)=C(CN2CCN(c3ccc(C(=O)NS(=O)(=O)c4ccc(N[C@H](CCN5CCOCC5)CSc5ccccc5)c(S(=O)(=O)C(F)(F)F)c4)cc3)CC2)C1` [ABT-263], the IC50 [1, 5] is reported as 464 nM, the IC50 [1, 6] is reported as 1150 nM and the “Fold shift in potency over ABT-263 alone” value ([2]; KARPAS-422, Compound A 100 nM) is reported as 2.8. For the same molecule, the “Fold shift in potency over ABT-263 alone” value ([2]; KARPAS-422, Compound A 500 nM) was 423, the IC50 [2, 7] was 169 nM and the IC50 [2, 8] was 60 nM. For the same molecule, the IC50 [2, 9] was 0.4 nM, the IC50 [3, 10] was 455 nM and the “Fold shift in potency over ABT-263 alone” value ([3]; Compound A 1 μM) was 43. For the same molecule, the IC50 [3, 11] was 11 nM, the IC50 [4, 12] was 518 nM and the IC50 [4, 13] was 17 nM. For the same molecule, the “Fold shift in potency over ABT-263 alone” value ([4]; SU-DHL-6, Compound A 250 nM) was 31.

With `CN(C)CC[C@H](CSc1ccccc1)Nc1ccc(S(=O)(=O)NC(=O)c2ccc(N3CCN(Cc4ccccc4-c4ccc(Cl)cc4)CC3)cc2)cc1[N+](=O)[O-]` [ABT-737] the IC50 [1, 5] was 1410 nM, the IC50 [1, 6] was 971 nM and the “Fold shift in potency over ABT-737 alone” value ([2]; KARPAS-422, Compound A 100 nM) was 4.3. The “Fold shift in potency over ABT-737 alone” value ([2]; KARPAS-422, Compound A 500 nM) was 304, the IC50 [2, 7] was 334 nM and the IC50 [2, 8] was 78 nM. The IC50 [2, 9] was 1.1 nM, the IC50 [3, 10] was 4710 nM and the “Fold shift in potency over ABT-737 alone” value ([3]; Compound A 1 uM) was 19. It also gave an IC50 [3, 11] of 246 nM, an IC50 [4, 12] of 1330 nM and an IC50 [4, 13] of 110 nM. The “Fold shift in potency over ABT-737 alone” value ([4]; SU-DHL-6, Compound A 250 nM) was 12.
